From paper PMC9466626, “Discovery of new 1H-pyrazolo[3,4-d]pyrimidine derivatives as anticancer agents targeting EGFR^WT and EGFR^T790M” (Journal of Enzyme Inhibition and Medicinal Chemistry, 2022)
Read-outs that look alike come from different tables or passages of the source.

Columns and labels:
HCT-116 = test: In vitro anti-proliferative MTT assay, HCT-116; assay type: cell-based, human; settings: for IC50: Homo sapiens, HCT-116, mean of three experiments, read-out: In vitro cytotoxicity IC50, HCT-116; for IC50 / anti-proliferative activity against HCT-116 in words: MTT; for HillSlope (best-fit value), HCT-116 / LogIC50 (best-fit value), HCT-116: supplement IC50 graph
Method: The cytotoxic activities of the synthesised compounds were assessed against two human cancer cell lines (lung, A549) and (colon HCT-116) using an MTT assay. These two cell lines were selected in this test due to the overexpression of EGFR in human lung and colon cancer cell lines[48]^,[49]. The tested cells were reported to have a high expression level of EGFR.
In vitro cytotoxicity was carried out for the synthesised compounds against A549, HCT-116, and WI-38 cell lines using the MTT assay protocol[52–55] as described in Supplementary data. […]
(§1) 1.1. In vitro antiproliferative activities
The in vitro antiproliferative activities of all the synthesized compounds against two human tumor cell lines namely, (lung, A549) and (colon HCT-116) and one normal cell line (WI-38) were evaluated quantitatively as described in the literature, using MTT assay protocol . two commercially available drugs (erlotinib) were used in this test as positive controls. The anti-proliferative activity was assessed quantitatively as follows.
(§2) Human cancer cell lines were dropped in 96 -well plates at a density of 3-8 × 10^3 cells/well.
(§3) Next, the wells were incubated for 12 h in a 5% CO 2 incubator at 37 °C. Then, for each well, the growth medium was exchanged with 0.1 ml of fresh medium containing graded concentrations of the test compounds to be or equal DMSO and incubated for two days. Then 10 μl MTT solution ([…]) was added to each well, and the cells were incubated for additional 4 h. The crystals of MTT-formazan were dissolved in 100 μl of DMSO; the absorbance of each well was measured at 490 nm using an automatic ELISA reader system (TECAN, CHE). The IC 50 values were calculated using the nonlinear regression fitting models (Graph Pad, Prism Version 5). The data represented the mean of three independent experiments in triplicate and were expressed as means ± SD. The IC50 value was defined as the concentration at which 50% of the cells could survive.
(§4) The results were expressed as growth inhibitory concentration (IC50) values and […]

A549 = test: In vitro anti-proliferative MTT assay, A549; assay type: cell-based, human; settings: for IC50: Homo sapiens; for HillSlope (best-fit value), A549 / LogIC50 (best-fit value), A549: supplement IC50 graph
Method: These two cell lines were selected in this test due to the overexpression of EGFR in human lung and colon cancer cell lines[48]^,[49]. The tested cells were reported to have a high expression level of EGFR. […]
as §1
The in vitro antiproliferative activities of all the synthesized compounds against two human […]
evaluated quantitatively as described in the literature, using MTT assay protocol . two […]
proliferative activity was assessed quantitatively as follows.
as §2
as §3, with “IC50 value was defined as the concentration at which 50% of the cells could survive.” left out
as §4

EGFR^WT = target: T1, EGFR^WT (Homo sapiens, UniProt P00533); test: EGFR^WT kinase inhibitory assay (HTRF); assay type: biochemical
T1 construct: purchased Sigma
T1 sequence (P00533 25-1210): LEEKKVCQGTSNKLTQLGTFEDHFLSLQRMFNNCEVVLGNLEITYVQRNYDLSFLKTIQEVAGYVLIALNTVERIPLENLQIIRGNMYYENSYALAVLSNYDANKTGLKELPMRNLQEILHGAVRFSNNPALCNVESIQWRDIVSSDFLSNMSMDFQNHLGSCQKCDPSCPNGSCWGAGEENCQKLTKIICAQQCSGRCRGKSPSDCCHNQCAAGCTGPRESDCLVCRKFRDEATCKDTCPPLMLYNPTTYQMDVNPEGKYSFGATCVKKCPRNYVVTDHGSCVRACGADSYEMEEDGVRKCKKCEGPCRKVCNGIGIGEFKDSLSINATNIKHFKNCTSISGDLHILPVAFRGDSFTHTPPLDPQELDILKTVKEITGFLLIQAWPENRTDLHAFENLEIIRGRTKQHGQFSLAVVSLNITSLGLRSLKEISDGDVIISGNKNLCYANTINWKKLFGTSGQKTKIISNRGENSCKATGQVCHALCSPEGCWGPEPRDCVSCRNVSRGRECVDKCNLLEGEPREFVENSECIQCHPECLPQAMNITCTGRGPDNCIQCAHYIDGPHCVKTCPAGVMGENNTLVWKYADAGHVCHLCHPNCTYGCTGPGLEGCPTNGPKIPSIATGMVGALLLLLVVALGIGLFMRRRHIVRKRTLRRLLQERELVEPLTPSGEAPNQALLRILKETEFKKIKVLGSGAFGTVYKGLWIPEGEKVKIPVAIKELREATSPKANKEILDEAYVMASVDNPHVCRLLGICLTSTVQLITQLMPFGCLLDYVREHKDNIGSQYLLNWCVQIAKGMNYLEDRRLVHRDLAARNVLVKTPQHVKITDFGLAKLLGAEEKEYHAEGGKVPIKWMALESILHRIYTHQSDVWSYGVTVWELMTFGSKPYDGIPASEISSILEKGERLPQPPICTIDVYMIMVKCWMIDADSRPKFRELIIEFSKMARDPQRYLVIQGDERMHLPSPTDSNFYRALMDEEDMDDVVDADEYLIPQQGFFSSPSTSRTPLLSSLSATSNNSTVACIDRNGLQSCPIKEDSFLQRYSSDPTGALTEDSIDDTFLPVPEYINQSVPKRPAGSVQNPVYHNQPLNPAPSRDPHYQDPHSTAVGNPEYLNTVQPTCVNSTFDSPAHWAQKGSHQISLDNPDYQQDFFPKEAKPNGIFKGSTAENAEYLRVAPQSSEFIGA
Method: In vitro EGFR inhibitory activity was assessed using a Homogeneous time-resolved fluorescence (HTRF) assay[56] as described in Supplementary data.
4.1.1. EGFRWT and EGFRT790M kinase inhibitory assay […]
against four cancer cell lines were further examined for their inhibitory activities against both […]
Homogeneous time resolved fluorescence (HTRF) assay was applied in this test. EGFRWT, EGFRT790M (Sigma). firstly, the EGFRWT and/or EGFRT790M and their substrates were incubated with the tested compounds in enzymatic buffer for 5 min. […]
the enzymatic reaction. The assay was conducted for 30 min at room temperature. The reaction was stopped by addition of detection reagents which contain EDTA. The detection step continued […]
experiments were performed for each concentration. […]

WI-38 = test: In vitro cytotoxicity against normal cells (MTT), WI-38; settings: supplement graph
Method: (§5) Next, the wells were incubated for 12 h in a 5% CO 2 incubator at 37 °C. Then, for each well, the growth medium was exchanged with 0.1 ml of fresh medium containing graded concentrations of the test compounds to be or equal DMSO and incubated for two days. Then 10 μl MTT solution (5 μg/ml) was added to each well, and the cells were incubated for additional 4 h. The crystals of MTT-formazan were dissolved in 100 μl of DMSO; the absorbance of each well was measured at 490 nm using an automatic ELISA reader system (TECAN, CHE). The IC 50 values were calculated using the nonlinear regression fitting models (Graph Pad, Prism Version 5). The data represented the mean of three independent experiments in triplicate and were expressed as means ± SD.

in vitro = settings: human, WI-38 normal cells
Method: as §5

[1] = A549, MTT, mean of three experiments, read-out: In vitro cytotoxicity IC50, A549
[2] = HTRF, mean of three experiments, read-out: EGFR^WT IC50
[3] = supplement graph, axis Log (nM)
[4] = supplement graph, axis Log (nM), read-out: IC50 (best-fit value of graph), EGFR inhibition

Compound | IC50 (HCT-116) [µM] | anti-proliferative activity against HCT-116 in words (HCT-116) | HillSlope (best-fit value), HCT-116 (HCT-116) | LogIC50 (best-fit value), HCT-116 (HCT-116) | IC50 (A549; [1]) [µM] | HillSlope (best-fit value), A549 (A549) | LogIC50 (best-fit value), A549 (A549) | IC50 (EGFR^WT; [2]) [nM] | HillSlope (best-fit value), EGFR inhibition (EGFR^WT; supplement graph) | LogIC50 (best-fit value), EGFR inhibition (EGFR^WT; [3]) | IC50 (EGFR^WT; [4]) [nM] | HillSlope (best-fit value), WI-38 (WI-38) | LogIC50 (best-fit value), WI-38 (WI-38) | IC50 at 2 days (in vitro) [µM] | IC50 (A549; A549, read-out: IC50 (best-fit value of graph), A549) [µM]
CCNc1nc(Nc2ccccc2)nc2c1cnn2-c1ccccc1 [Compound 7a, N4-Ethyl-N6,1-diphenyl-1H-pyrazolo[3,4-d]pyrimidine-4,6-diamine] | 29.6 | moderate | -0.4339 | 1.472 | 64.4 | -0.4567 | 1.809 | – | – | – | – | – | – | – | –
CCCNc1nc(Nc2ccccc2)nc2c1cnn2-c1ccccc1 [Compound 7b, N4-Propyl-N6,1-diphenyl-1H-pyrazolo[3,4-d]pyrimidine-4,6-diamine] | 31.5 | moderate | -0.4549 | 1.498 | 67.4 | -0.4700 | 1.829 | – | – | – | – | – | – | – | –
c1ccc(Nc2nc(Nc3ccccc3)c3cnn(-c4ccccc4)c3n2)cc1 [Compound 8, N4,N6,1-Triphenyl-1H-pyrazolo[3,4-d]pyrimidine-4,6-diamine] | 24.2 | – | -0.4231 | 1.383 | 16.8 | -0.3605 | 1.224 | 26 | -0.3385 | 1.415 | 26 | – | – | – | –
c1ccc(Nc2nc(NC3CCCCC3)c3cnn(-c4ccccc4)c3n2)cc1 [Compound 9, N4-Cyclohexyl-N6,1-diphenyl-1H-pyrazolo[3,4-d]pyrimidine-4,6-diamine] | 39.4 | – | -0.3946 | 1.595 | 29.1 | -0.3708 | 1.463 | – | – | – | – | – | – | – | –
NNc1nc(Nc2ccccc2)nc2c1cnn2-c1ccccc1 [Compound 10, 4-Hydrazinyl-N,1-diphenyl-1H-pyrazolo[3,4-d]pyrimidin-6-amine] | 18.8 | – | -0.3276 | 1.274 | 15.7 | -0.3765 | 1.195 | 23 | -0.3619 | 1.366 | 23.2 | – | – | – | –
COc1ccc(C=NNc2nc(Nc3ccccc3)nc3c2cnn3-c2ccccc2)cc1 [Compound 11a, 4–(2-(4-Methoxybenzylidene)hydrazinyl)-N,1-diphenyl-1H-pyrazolo[3,4-d] pyrimidin-6-amine] | 46.2 | – | -0.4760 | 1.664 | 47.7 | -0.4514 | 1.678 | – | – | – | – | – | – | – | –
Clc1ccc(C=NNc2nc(Nc3ccccc3)nc3c2cnn3-c2ccccc2)cc1 [Compound 11b, 4–(2-(4-Chlorobenzylidene)hydrazinyl)-N,1-diphenyl-1H-pyrazolo[3,4-d]pyrimidin-6-amine] | 75.1 | – | -0.5652 | 1.876 | 75.7 | -0.3813 | 1.879 | – | – | – | – | – | – | – | –
CC(=NNc1nc(Nc2ccccc2)nc2c1cnn2-c1ccccc1)c1ccccc1 [Compound 12a, N,1-Diphenyl-4–(2-(1-phenylethylidene)hydrazinyl)-1H-pyrazolo[3,4-d]pyrimidin-6-amine] | 23.3 | – | -0.4063 | 1.368 | 13.7 | -0.3395 | 1.137 | 21 | -0.3296 | 1.321 | 21 | – | – | – | –
CC(=NNc1nc(Nc2ccccc2)nc2c1cnn2-c1ccccc1)c1ccc(C)cc1 [Compound 12c, N,1-Diphenyl-4–(2-(1-(p-tolyl)ethylidene)hydrazinyl)-1H-pyrazolo [3,4-d] pyrimidin-6-amine] | 28.7 | moderate | -0.4467 | 1.458 | 28.8 | -0.4080 | 1.459 | – | – | – | – | – | – | – | –
CCNC(=S)NNc1nc(Nc2ccccc2)nc2c1cnn2-c1ccccc1 [Compound 13a, N-Ethyl-2–(1-phenyl-6-(phenylamino)-1H-pyrazolo[3,4-d]pyrimidin-4-yl) hydrazine-1-carbothioamide] | 27 | moderate | -0.4156 | 1.432 | 43.1 | -0.4011 | 1.635 | – | – | – | – | – | – | – | –
CCCNC(=S)NNc1nc(Nc2ccccc2)nc2c1cnn2-c1ccccc1 [Compound 13b, 2–(1-Phenyl-6-(phenylamino)-1H-pyrazolo[3,4-d]pyrimidin-4-yl)-N-propyl hydrazine-1-carbothioamide] | 36.4 | – | -0.3703 | 1.562 | 15.4 | -0.3921 | 1.186 | – | – | – | – | – | – | – | –
C#Cc1cccc(Nc2ncnc3cc(OCCOC)c(OCCOC)cc23)c1 [Erlotinib, reference compound] | 19.2 | – | -0.3370 | 1.284 | 6.77 | -0.3354 | 0.8309 | – | – | – | – | -0.4750 | 1.528 | 33.8 | 6.78
